Values of other authors, collected in patent US20250231185A1, “Coronavirus T Cell Epitopes, Megapools and Uses Thereof” (La Jolla Institute for Immunology, priority 2021, published 2025).
Read-outs that look alike come from different tables or passages of the source.

System: CD8+ T cells
Conditions: cited from earlier work
[1] = CD8R (D) megapool epitopes, dominant = recognized by 3 or more donors/different studies
[2] = T cell subset (CD4 or CD8) recognizing the SARS-CoV-2-derived epitope
[3] = T cell type (CD4 or CD8) recognizing the SARS-CoV-2 epitope
[4] = CD8RE megapool peptides (non-spike SARS-CoV-2 antigens), dominant epitope Yes/No
[5] = SARS-CoV-2-derived CD8 epitopes, dominant = recognized by 3 or more donors/different studies
[6] = SARS-CoV-2 Ag S, T cell type recognizing the epitope

In the case of 1754 (GVAMPNLYK) [compound 1754], the Dominant [1] is listed as “Yes (more dominant epitopes are defined by being recognized by 3 or more donors/different studies)”.

For 545 (TPSGTWLTY) [compound 545], the Restriction [2] is given as “CD8”.

For 681 (YTGNYQCGHY) [compound 681], the Restriction [2] is listed as “CD8”.

In the case of 1086 (VAMPNLYKM) [compound 1086], the Restriction [3] is given as “CD8”.

For 1778 (TPKYKFVRI) [compound 1778], the Dominant [1] is listed as “Yes (more dominant epitopes are defined by being recognized by 3 or more donors/different studies)”.

For 2915 (RYRIGNYKL) [compound 2915], the Dominant [4] is listed as “Yes (more dominant epitopes are defined by being recognized by 3 or more donors/different studies)”.

In the case of 610 (YIATNGPLK) [compound 610], the Restriction [2] is listed as “CD8”.

For 2984 (KQFDTYNLW) [compound 2984], the Dominant [4] is given as “Yes (more dominant epitopes are defined by being recognized by 3 or more donors/different studies)”.

In the case of 559 (HLKDGTCGL) [compound 559], the Restriction [2] is given as “CD8”.

For 1705 (MEVTPSGTWL) [compound 1705], the Dominant [1] is given as “Yes (more dominant epitopes are defined by being recognized by 3 or more donors/different studies)”.

In the case of 584 (FGDDTVIEV) [compound 584], the Dominant [5] is given as “Yes (more dominant epitopes are defined by being recognized by 3 or more donors/different studies)” and the Restriction [2] is given as “CD8”.

In the case of 1714 (YTMADLVYAL) [compound 1714], the Dominant [1] is given as “Yes (more dominant epitopes are defined by being recognized by 3 or more donors/different studies)”.

For 3014 (VRIQPGQTF) [compound 3014], the Dominant [4] is given as “Yes (more dominant epitopes are defined by being recognized by 3 or more donors/different studies)”.

For 2949 (YTMADLVYAL) [compound 2949], the Dominant [4] is listed as “Yes (more dominant epitopes are defined by being recognized by 3 or more donors/different studies)”.

For 977 (SICSTMTNR) [compound 977], the Restriction [3] is listed as “CD8”.

In the case of 1784 (SAFAMMFVK) [compound 1784], the Dominant [1] is listed as “Yes (more dominant epitopes are defined by being recognized by 3 or more donors/different studies)”.

For 590 (VLNEKCSAY) [compound 590], the Restriction [2] is given as “CD8”.

For 633 (MLAHAEETR) [compound 633], the Restriction [2] is listed as “CD8”.

For 1417 (AEIRASANL) [compound 1417], the Restriction [6] is given as “CD8”.

For 1346 (QTNSPRRAR) [compound 1346], the Restriction [6] is given as “CD8”.

For 1005 (YLPYPDPSRI) [compound 1005], the Restriction [3] is listed as “CD8”.

For 1325 (LVKNKCVNF) [compound 1325], the Restriction [6] is given as “CD8”.

For 1669 (KLLEQWNLV) [compound 1669], the Dominant [1] is given as “Yes (more dominant epitopes are defined by being recognized by 3 or more donors/different studies)”.

In the case of 907 (SEISMDNSPNL) [compound 907], the Restriction [3] is given as “CD8”.

For 996 (YAYLRKHF) [compound 996], the Restriction [3] is listed as “CD8”.

In the case of 3005 (YIFFASFYY) [compound 3005], the Dominant [4] is given as “Yes (more dominant epitopes are defined by being recognized by 3 or more donors/different studies)”.

For 506 (LPYGANKDGI) [compound 506], the Restriction [2] is given as “CD8”.

In the case of 1336 (IHADQLTPTW) [compound 1336], the Restriction [6] is listed as “CD8”.

In the case of 523 (KPRQKRTAT) [compound 523], the Dominant [5] is given as “Yes (more dominant epitopes are defined by being recognized by 3 or more donors/different studies)” and the Restriction [2] is given as “CD8”.

In the case of 2913 (ATSRTLSYY) [compound 2913], the Dominant [4] is given as “Yes (more dominant epitopes are defined by being recognized by 3 or more donors/different studies)”.

For 962 (YRYNLPTMC) [compound 962], the Restriction [3] is listed as “CD8”.

In the case of 1806 (VYFLQSINF) [compound 1806], the Dominant [1] is listed as “Yes (more dominant epitopes are defined by being recognized by 3 or more donors/different studies)”.

For 1690 (GTGPEAGLPY) [compound 1690], the Dominant [1] is listed as “Yes (more dominant epitopes are defined by being recognized by 3 or more donors/different studies)”.

For 902 (TFTYASALW) [compound 902], the Restriction [3] is given as “CD8”.

For 1051 (KNLSDRVVFV) [compound 1051], the Restriction [3] is listed as “CD8”.

In the case of 3009 (FSAVGNICY) [compound 3009], the Dominant [4] is given as “Yes (more dominant epitopes are defined by being recognized by 3 or more donors/different studies)”.

In the case of 1733 (VVYRGTTTY) [compound 1733], the Dominant [1] is listed as “Yes (more dominant epitopes are defined by being recognized by 3 or more donors/different studies)”.

For 1716 (LLMPILTLT) [compound 1716], the Dominant [1] is given as “Yes (more dominant epitopes are defined by being recognized by 3 or more donors/different studies)”.

In the case of 1750 (NLWNTFTRL) [compound 1750], the Dominant [1] is listed as “Yes (more dominant epitopes are defined by being recognized by 3 or more donors/different studies)”.

For 617 (LYDKLVSSF) [compound 617], the Restriction [2] is given as “CD8”.

In the case of 1745 (ALLADKFPV) [compound 1745], the Dominant [1] is given as “Yes (more dominant epitopes are defined by being recognized by 3 or more donors/different studies)”.

In the case of 3021 (MPASWVMRI) [compound 3021], the Dominant [4] is listed as “Yes (more dominant epitopes are defined by being recognized by 3 or more donors/different studies)”.

For 3033 (YTELEPPCRF) [compound 3033], the Dominant [4] is given as “Yes (more dominant epitopes are defined by being recognized by 3 or more donors/different studies)”.

In the case of 1038 (IPARARVECF) [compound 1038], the Restriction [3] is given as “CD8”.

For 1715 (TMADLVYAL) [compound 1715], the Dominant [1] is listed as “Yes (more dominant epitopes are defined by being recognized by 3 or more donors/different studies)”.

For 2999 (TTDPSFLGRY) [compound 2999], the Dominant [4] is listed as “Yes (more dominant epitopes are defined by being recognized by 3 or more donors/different studies)”.

In the case of 3012 (TSEDMLNPNY) [compound 3012], the Dominant [4] is given as “Yes (more dominant epitopes are defined by being recognized by 3 or more donors/different studies)”.

For 973 (IPTITQMNL) [compound 973], the Restriction [3] is given as “CD8”.

In the case of 1760 (VTNNTFTLK) [compound 1760], the Dominant [1] is listed as “Yes (more dominant epitopes are defined by being recognized by 3 or more donors/different studies)”.

In the case of 2960 (FYAYLRKHF) [compound 2960], the Dominant [4] is given as “Yes (more dominant epitopes are defined by being recognized by 3 or more donors/different studies)”.

In the case of 1678 (ATSRTLSYY) [compound 1678], the Dominant [1] is given as “Yes (more dominant epitopes are defined by being recognized by 3 or more donors/different studies)”.

In the case of 1413 (LITGRLQSL) [compound 1413], the Restriction [6] is listed as “CD8”.

In the case of 510 (ATEGALNTPKDHI) [compound 510], the Dominant [5] is given as “Yes (more dominant epitopes are defined by being recognized by 3 or more donors/different studies)” and the Restriction [2] is given as “CD8”.

In the case of 1667 (YVYSRVKNL) [compound 1667], the Dominant [1] is given as “Yes (more dominant epitopes are defined by being recognized by 3 or more donors/different studies)”.

In the case of 649 (ITFDNLKTL) [compound 649], the Restriction [2] is listed as “CD8”.

For 1432 (HVTYVPAQEK) [compound 1432], the Restriction [6] is given as “CD8”.

For 694 (ASFDNFKFV) [compound 694], the Restriction [2] is listed as “CD8”.

In the case of 2954 (ISDYDYYRY) [compound 2954], the Dominant [4] is listed as “Yes (more dominant epitopes are defined by being recognized by 3 or more donors/different studies)”.

For 669 (YPQVNGLTSI) [compound 669], the Restriction [2] is listed as “CD8”.

For TTDPSFLGRYM [nsp3 819-829], the dominance as reported (HLA-A*01:01 epitopes overlapping TTDPSFLGRY, Saini et al.) is given as “particularly dominant”.

For 600 (LEMELTPVV) [compound 600], the Restriction [2] is given as “CD8”.

In the case of 900 (TYKNTCDGTTF) [compound 900], the Restriction [3] is listed as “CD8”.

For 981 (VENPHLMGWD) [compound 981], the Restriction [3] is listed as “CD8”.

For 1748 (MMISAGFSL) [compound 1748], the Dominant [1] is listed as “Yes (more dominant epitopes are defined by being recognized by 3 or more donors/different studies)”.

For 655 (MSMTYGQQF) [compound 655], the Restriction [2] is listed as “CD8”.

In the case of 916 (YLYFIKGLNNL) [compound 916], the Restriction [3] is listed as “CD8”.

For 1323 (ELLHAPATV) [compound 1323], the Restriction [6] is given as “CD8”.

In the case of 1735 (VYRGTTTYKL) [compound 1735], the Dominant [1] is given as “Yes (more dominant epitopes are defined by being recognized by 3 or more donors/different studies)”.

For 654 (QVVDMSMTY) [compound 654], the Restriction [2] is listed as “CD8”.

For 960 (AISDYDYYR) [compound 960], the Restriction [3] is given as “CD8”.

For 1726 (RILGAGCFV) [compound 1726], the Dominant [1] is given as “Yes (more dominant epitopes are defined by being recognized by 3 or more donors/different studies)”.

For 915 (GPKVKYLYF) [compound 915], the Restriction [3] is listed as “CD8”.

In the case of 950 (KIFVDGVPFV) [compound 950], the Restriction [3] is listed as “CD8”.

For 646 (TSNPTTFHL) [compound 646], the Restriction [2] is listed as “CD8”.

In the case of 583 (VTNNTFTLK) [compound 583], the Dominant [5] is listed as “Yes (more dominant epitopes are defined by being recognized by 3 or more donors/different studies)” and the Restriction [2] is listed as “CD8”.

In the case of 558 (VLSEARQHL) [compound 558], the Dominant [5] is given as “Yes (more dominant epitopes are defined by being recognized by 3 or more donors/different studies)” and the Restriction [2] is given as “CD8”.

For 695 (KFADDLNQL) [compound 695], the Restriction [2] is given as “CD8”.

For 3030 (ALRANSAVK) [compound 3030], the Dominant [4] is given as “Yes (more dominant epitopes are defined by being recognized by 3 or more donors/different studies)”.

In the case of 534 (QFAPSASAFF) [compound 534], the Restriction [2] is given as “CD8”.

For 677 (VMYMGTLSY) [compound 677], the Restriction [2] is listed as “CD8”.

In the case of 1807 (LLYDANYFL) [compound 1807], the Dominant [1] is listed as “Yes (more dominant epitopes are defined by being recognized by 3 or more donors/different studies)”.

In the case of 2902 (YVYSRVKNL) [compound 2902], the Dominant [4] is given as “Yes (more dominant epitopes are defined by being recognized by 3 or more donors/different studies)”.

In the case of 2928 (VLQLPQGTTL) [compound 2928], the Dominant [4] is listed as “Yes (more dominant epitopes are defined by being recognized by 3 or more donors/different studies)”.
